{"source": "patent US11026940B2", "about": "“Compositions for the mobilization, homing, expansion and differentiation of stem cells and methods of using the same” (Ampio Pharmaceuticals, Inc., priority 2013, dated 2021)", "format_in_all_cases": "cell-based, human", "key": {"Collagen 2A1": {"system": "Collagen 2A1", "assay": "Stem cell chondrogenesis, real time PCR gene expression: Collagen 2A1", "conditions": "for Mean regulation / regulation: vs saline; for Mean ΔCp / ΔCp: Collagen 2A1 vs GAPDH; for regulation, Collagen 2A1 / Mean regulation, Collagen 2A1: fold regulation vs saline; for regulation, Collagen 2A1 / ΔCp, Collagen 2A1 / 2^-ΔΔCp vs saline, Collagen 2A1 / ΔΔCp vs saline, Collagen 2A1: single replicate well; for Mean regulation, Collagen 2A1 / Mean ΔCp, Collagen 2A1: triplicate wells; for ΔCp, Collagen 2A1: human bone marrow MSC, chondrogenic medium + TGF beta 3; for ΔCp, Collagen 2A1 / 2^-ΔΔCp vs saline, Collagen 2A1 / ΔΔCp vs saline, Collagen 2A1 / Mean ΔCp, Collagen 2A1: vs Actin", "quoted_text": "(§1) • Stem Cells: Bone marrow derived human mesenchymal stem cells: Passage 5 Bone marrow derived human mesenchymal stem cells (HUXMA-01001, Cyagen Biosciences, Sunnyvale Calif.) • Mesenchymal Stem Cell Chondrogenic Differentiation medium (GUXMX-90041, Cyagen Biosciences, Sunnyvale Calif.) • TheraPEAK MSCGM chemically defined Stem cell medium (190632 Lonza) • 1 mM Dexamethasone acetate and mifepristone in absolute ethanol (Sigma) • Saline or 0.9% Sodium chloride for injection ZR Flush (Excelsior Medical, Neptune N.J.) • Sterile filtered 0.6 mM sodium caprylate in saline (sigma) • Sterile filtered 3 mM NAT in saline (sigma); To prepare, heat at 60° C. for 30 minutes then sonicate for 5 minutes. • Sterile filtered 10 mM DADKP in saline • 0.2 μM syringe filters • Hepes buffered saline, Trypsin/EDTA, Trypsin neutralizing solution (Lonza reagent pack) • 182 cm2 tissue culture flasks • pipettes and sterile tips • Tissue culture hood, humidified CO2 incubator, water or bead bath • 24 well tissue culture plates • Qiagen RNeasy plus spin columns (Qiagen 74134) • Qiagen RT2 qPCR primer pairs for Collagen 2A1, MMP13, TIMP1, Aggrecan, GAPDH, and Actin B • Roche Sybr green I master mix and Invitrogen Superscript VILO master mix. • Roche 480 lightcycler\n(§2) The following stock drug treatment solutions were prepared in saline for injection and warmed to 37° C. in bath: • 4 μM dexamethasone • 4 μM mifepristone • 3 mM NAT • 0.6 mM caprylate • 80 μM DADKP • Mix of 3 mM NAT, 0.6 mM caprylate, 80 μM DADKP (“Ampion” mix)\n(§3) Cyagen Chondrogenic Differentiation medium was prepared by manufacturer protocols but excluding dexamethasone and TGF beta 3 supplements, and warmed to 37° C. in bath.\n(§4) The treatment protocol included expanding 5 HUXMA stem cells in 182 cm^2 flasks containing 40 mls TheraPEAK™ MSCGM to 80-90% confluence. Cells were trypsinized from the flasks and a 1.0×10^7 cell suspension of HUXMA stem cells was warmed in Cyagen Chondrogenic Differentiation medium. 20 μl of warmed cell suspension was spotted in the middle of each well of a 24-well tissue culture plate (200,000 cells per spot), and incubated at 37° C. and 5% CO2 for one hour.\n(§5) The plates were removed from the incubator and an additional 720 μl chondrogenic medium was added to each well. 250 μl saline, or drug solutions were added to the appropriate wells in triplicate (bringing the final drug dilution to one-quarter of the stock drug treatment solution concentrations). 10 μl of TGF beta 3 solution (supplied by Cyagen) was added to each well, and the plates were returned to the incubator.\n(§6) RNA isolation and analysis was conducted for all plates as follows at days 7, 14, and 22 post treatment (with the described medium exchanges). […] Qiagen RNeasy plus lysis buffer (with 2mercaptoethanol) was added to each well and gently shaken for 10 minutes. The lysed cell suspensions from each well were transferred to Qiashredder columns and spun at 14,000 rpm for 2 minutes. RNA isolation proceeded by RNeasy™ plus manufacturer's protocol. RNA was eluted from the Qiagen columns using 25 μl RNase free water.\n(§7) cDNA synthesis and real time PCR was conducted as follows. First strand synthesis of cDNA from all samples was performed in 20 μl total volume using 10 μl isolated RNA. All cDNA reactions were then diluted with 30 μl nuclease free water. Real time PCR was then performed using 5 μl diluted cDNA, Roche Syber green master mix, and Qiagen RT^2 gPCR™ primer pairs in 20 μl total reaction volume. Relative gene expression was determined by delta deta Ct method."}, "MMP13": {"system": "MMP13", "assay": "Stem cell chondrogenesis, real time PCR gene expression: MMP13", "conditions": "for Mean regulation: vs saline; for Mean ΔCp / ΔCp: MMP13 vs GAPDH", "quoted_text": "as §1, §2, §3, §4, §5, §6, §7"}, "SOX9": {"system": "SOX9", "assay": "Stem cell chondrogenesis, real time PCR gene expression: SOX9", "conditions": "Day 14", "procedure": "The treatment protocol included expanding 5 HUXMA stem cells in 182 cm^2 flasks containing 40 […] to 80-90% confluence. Cells were trypsinized from the flasks and a 1.0×10^7 cell suspension of HUXMA stem cells was warmed in Cyagen Chondrogenic Differentiation medium. 20 μl of warmed cell suspension was spotted in the middle of each well of a 24-well tissue culture plate (200,000 cells per spot), and incubated at 37° C. and 5% CO2 for one hour. […] Medium exchanges were performed every 3-4 days by aspirating the medium from the wells and replacing with fresh chondrogenic medium, diluted stocks, and TGF beta 3, as described above. […] Medium from the wells was removed and saved for further protein analysis. Qiagen RNeasy plus lysis buffer (with 2mercaptoethanol) was added to each well and gently shaken for 10 minutes. The lysed cell suspensions from each well were transferred to Qiashredder columns and spun at 14,000 rpm for 2 minutes. RNA isolation proceeded by RNeasyTM plus manufacturer's protocol. RNA was eluted from the Qiagen columns using 25 μl RNase free water. cDNA synthesis and real time PCR was conducted as follows. First strand synthesis of cDNA from all samples was performed in 20 μl total volume using 10 μl isolated RNA. All cDNA reactions were then diluted with 30 μl nuclease free water. Real time PCR was then performed using 5 μl diluted cDNA, Roche Syber green master mix, and Qiagen RT^2 gPCRTM primer pairs in 20 μl total reaction volume."}, "Aggrecan": {"system": "Aggrecan", "assay": "Stem cell chondrogenesis, real time PCR gene expression: Aggrecan", "conditions": "Day 22; for Mean ΔCp / ΔCp: Aggrecan vs Actin; for Mean regulation / regulation: vs saline", "quoted_text": "as §1, §2, §3, §4, §5, §6, §7"}, "TIMP1": {"system": "TIMP1", "assay": "Stem cell chondrogenesis, real time PCR gene expression: TIMP1", "conditions": "Day 22; for Mean ΔCp / ΔCp: TIMP1 vs Actin"}, "[1]": {"conditions": "Day 7, vs Actin, single replicate well"}, "[2]": {"conditions": "vs Actin, single replicate well"}}, "note": "“And” between values parts separate entries of the source, which are not always exact repeats. Identical values can stand only once.", "data": [{"smiles": "CC(=O)OCC(=O)[C@@]1(O)[C@H](C)C[C@H]2[C@@H]3CCC4=CC(=O)C=C[C@]4(C)[C@@]3(F)[C@@H](O)C[C@@]21C", "note": "[Dexamethasone, Dexamethasone acetate]", "values": [{"measurement": "2-^ΔΔCP vs saline", "setting": "Collagen 2A1; Collagen 2A1, Day 22, Table 12", "value": "141.7 and 196.27 and 168.51"}, {"measurement": "Cp Coll", "setting": "Collagen 2A1; Collagen 2A1, Day 22, Table 12", "value": "22.42 and 21.94 and 21.42"}, {"measurement": "2^-ΔΔCp vs saline", "setting": "Collagen 2A1; Collagen 2A1, Day 22, Table 16", "value": "141.7 and 196.27 and 168.51"}, {"measurement": "Cp Coll", "setting": "Collagen 2A1; Collagen 2A1, Day 22, Table 16", "value": "22.42 and 21.94 and 21.42"}, {"measurement": "Mean regulation", "setting": "Collagen 2A1; Collagen 2A1, Day 22, Table 12", "value": 168.82}, {"measurement": "regulation", "setting": "Collagen 2A1; Collagen 2A1, Day 22, Table 12", "value": "141.70 and 196.27 and 168.51"}, {"measurement": "Mean regulation", "setting": "Collagen 2A1; Collagen 2A1, Day 22, Table 16", "value": 168.82}, {"measurement": "regulation", "setting": "Collagen 2A1; Collagen 2A1, Day 22, Table 16", "value": "141.70 and 196.27 and 168.51"}, {"measurement": "Mean ΔCp", "setting": "Collagen 2A1; Day 22, Table 12", "value": 5.76}, {"measurement": "ΔCp", "setting": "Collagen 2A1; Day 22, Table 12", "value": "6 and 5.53 and 5.75"}, {"measurement": "Mean ΔCp", "setting": "Collagen 2A1; Day 22, Table 16", "value": 5.76}, {"measurement": "ΔCp", "setting": "Collagen 2A1; Day 22, Table 16", "value": "6 and 5.53 and 5.75"}, {"measurement": "regulation, Collagen 2A1", "setting": "Collagen 2A1; Day 7", "value": "−1.01 and 2.61 and 2.72"}, {"measurement": "Mean regulation, Collagen 2A1", "setting": "Collagen 2A1; Day 7", "value": 1.44}, {"measurement": "ΔCp, Collagen 2A1", "setting": "Collagen 2A1; Day 7", "value": "6.75 and 5.35 and 5.29"}, {"measurement": "2^-ΔΔCp vs saline, Collagen 2A1", "setting": "Collagen 2A1; Day 7", "value": "0.9885 and 2.6087 and 2.7195"}, {"measurement": "ΔΔCp vs saline, Collagen 2A1", "setting": "Collagen 2A1; Day 7", "value": "0.017 and −1.38 and −1.44"}, {"measurement": "Mean ΔCp, Collagen 2A1", "setting": "Collagen 2A1; Day 7", "value": 5.797}, {"measurement": "regulation, Collagen 2A1", "setting": "Collagen 2A1; Day 14", "value": "7.29 and 10.39 and 6.57"}, {"measurement": "Mean regulation, Collagen 2A1", "setting": "Collagen 2A1; Day 14", "value": 8.08}, {"measurement": "ΔCp, Collagen 2A1", "setting": "Collagen 2A1; Day 14", "value": "8.19 and 7.68 and 8.34"}, {"measurement": "2^-ΔΔCp vs saline, Collagen 2A1", "setting": "Collagen 2A1; Day 14", "value": "7.2938 and 10.387 and 6.5735"}, {"measurement": "ΔΔCp vs saline, Collagen 2A1", "setting": "Collagen 2A1; Day 14", "value": "−2.87 and −3.38 and −2.72"}, {"measurement": "Mean ΔCp, Collagen 2A1", "setting": "Collagen 2A1; Day 14", "value": 8.07}, {"measurement": "regulation, MMP13", "setting": "MMP13; Day 7, fold regulation vs saline, single replicate well", "value": "−1.62 and 1.64 and 1.33"}, {"measurement": "Mean regulation, MMP13", "setting": "MMP13; Day 7, fold regulation vs saline, triplicate wells", "value": 0.45}, {"measurement": "ΔCp, MMP13", "setting": "MMP13; Day 7, human bone marrow MSC, chondrogenic medium + TGF beta 3, vs Actin, single replicate well", "value": "5.33 and 3.92 and 4.23"}, {"measurement": "2^-ΔΔCp vs saline, MMP13", "setting": "MMP13; [1]", "value": "0.6184 and 1.6434 and 1.3256"}, {"measurement": "ΔΔCp vs saline, MMP13", "setting": "MMP13; [1]", "value": "0.693 and −0.72 and −0.41"}, {"measurement": "Mean ΔCp, MMP13", "setting": "MMP13; Day 7, vs Actin, triplicate wells", "value": 4.493}, {"measurement": "Cp, MMP13", "setting": "MMP13; MMP13, Day 22, Table 12", "value": "20.77 and 20.68 and 20.35"}, {"measurement": "ΔΔCp vs saline", "setting": "MMP13; MMP13, Day 22, Table 12", "value": "1.357 and 1.277 and 1.687"}, {"measurement": "2^-ΔΔCp vs saline", "setting": "MMP13; MMP13, Day 22, Table 16", "value": "0.3905 and 0.4127 and 0.3106"}, {"measurement": "Cp, MMP13", "setting": "MMP13; MMP13, Day 22, Table 16", "value": "20.77 and 20.68 and 20.35"}, {"measurement": "ΔΔCp vs saline", "setting": "MMP13; MMP13, Day 22, Table 16", "value": "1.357 and 1.277 and 1.687"}, {"measurement": "Mean regulation", "setting": "MMP13; MMP13, Day 22, Table 12", "value": "−2.73"}, {"measurement": "Mean regulation", "setting": "MMP13; MMP13, Day 22, Table 16", "value": "−2.73"}, {"measurement": "Mean ΔCp", "setting": "MMP13; Day 22, Table 12", "value": 4.433}, {"measurement": "ΔCp", "setting": "MMP13; Day 22, Table 12", "value": "4.35 and 4.27 and 4.68"}, {"measurement": "Mean ΔCp", "setting": "MMP13; Day 22, Table 16", "value": 4.433}, {"measurement": "ΔCp", "setting": "MMP13; Day 22, Table 16", "value": "4.35 and 4.27 and 4.68"}, {"measurement": "regulation, SOX9", "setting": "SOX9; fold regulation vs saline, single replicate well", "value": "−2.04 and −1.24 and −1.80"}, {"measurement": "Mean regulation, SOX9", "setting": "SOX9; fold regulation vs saline, triplicate wells", "value": "−1.69"}, {"measurement": "ΔCp, SOX9", "setting": "SOX9; human bone marrow MSC, chondrogenic medium + TGF beta 3, vs Actin, single replicate well", "value": "8.21 and 7.49 and 8.03"}, {"measurement": "2^-ΔΔCp vs saline, SOX9", "setting": "SOX9; [2]", "value": "0.4897 and 0.8066 and 0.5548"}, {"measurement": "ΔΔCp vs saline, SOX9", "setting": "SOX9; [2]", "value": "1.03 and 0.31 and 0.85"}, {"measurement": "Mean ΔCp, SOX9", "setting": "SOX9; vs Actin, triplicate wells", "value": 7.91}, {"measurement": "Mean ΔCp", "setting": "Aggrecan; Table 12", "value": 6.523}, {"measurement": "ΔCp", "setting": "Aggrecan; Table 12", "value": "6.28 and 6.69 and 6.6"}, {"measurement": "Mean ΔCp", "setting": "Aggrecan; Table 16", "value": 6.523}, {"measurement": "ΔCp", "setting": "Aggrecan; Table 16", "value": "6.28 and 6.69 and 6.6"}, {"measurement": "2-ΔΔCp vs saline", "setting": "Aggrecan; Aggrecan, Table 12", "value": "15.313 and 11.525 and 12.267"}, {"measurement": "Cp Agg", "setting": "Aggrecan; Aggrecan, Table 12", "value": "20.48 and 20.68 and 20.44"}, {"measurement": "2^-ΔΔCp vs saline", "setting": "Aggrecan; Aggrecan, Table 16", "value": "15.313 and 11.525 and 12.267"}, {"measurement": "Cp Agg", "setting": "Aggrecan; Aggrecan, Table 16", "value": "20.48 and 20.68 and 20.44"}, {"measurement": "Mean regulation", "setting": "Aggrecan; Aggrecan, Table 12", "value": 13.03}, {"measurement": "regulation", "setting": "Aggrecan; Aggrecan, Table 12", "value": "15.31 and 11.52 and 12.27"}, {"measurement": "Mean regulation", "setting": "Aggrecan; Aggrecan, Table 16", "value": 13.03}, {"measurement": "regulation", "setting": "Aggrecan; Aggrecan, Table 16", "value": "15.31 and 11.52 and 12.27"}, {"measurement": "Cp TIMP1", "setting": "TIMP1; TIMP1, Table 12", "value": "17.35 and 16.81"}, {"measurement": "2-^ΔΔCp vs saline", "setting": "TIMP1; TIMP1, Table 16", "value": "1.5333 and 1.3256 and 1.7371"}, {"measurement": "Cp TIMP1", "setting": "TIMP1; TIMP1, Table 16", "value": "17.35 and 16.81"}, {"measurement": "Mean regulation", "setting": "TIMP1; TIMP1, vs saline, Table 12", "value": 1.53}, {"measurement": "regulation", "setting": "TIMP1; TIMP1, vs saline, Table 12", "value": "1.33 and 1.74 and 1.53"}, {"measurement": "regulation", "setting": "TIMP1; TIMP1, vs saline, Table 16", "value": "1.53 and 1.33 and 1.74"}, {"measurement": "Mean ΔCp", "setting": "TIMP1; Table 12", "value": 3.16}, {"measurement": "ΔCp", "setting": "TIMP1; Table 12", "value": "3.36 and 2.97 and 3.15"}, {"measurement": "Mean ΔCp", "setting": "TIMP1; Table 16", "value": 3.16}, {"measurement": "ΔCp", "setting": "TIMP1; Table 16", "value": "3.15 and 3.36 and 2.97"}]}]}
